Test results as given in publication PMC9929129, “Towards Translation of PqsR Inverse Agonists: From In Vitro Efficacy Optimization to In Vivo Proof‐of‐Principle” (Advanced Science, 2023).
Converted amounts (≈) assume the structure as drawn. Read-outs that look alike come from different tables or passages of the source.

Experiments:
[1] = test system: Bronchiectasis clinical isolates, PA14 and PAO1; assay: Antimicrobial minimal inhibitory concentrations (MIC), microdilution
[2] = test system: Pseudomonas aeruginosa PA14; set-up: method as in PMID 31709767; details: previously published hit; read-out: IC50 Pyocyanin; cited from earlier work
[3] = target: T1, PqsR (Pseudomonas aeruginosa, UniProt Q9I4X0); details: cited from earlier work
T1 construct: expressed in transfected cells; host or cells: Escherichia coli DH5α with plasmid pEAL08-2
T1 sequence (Q9I4X0 whole entry): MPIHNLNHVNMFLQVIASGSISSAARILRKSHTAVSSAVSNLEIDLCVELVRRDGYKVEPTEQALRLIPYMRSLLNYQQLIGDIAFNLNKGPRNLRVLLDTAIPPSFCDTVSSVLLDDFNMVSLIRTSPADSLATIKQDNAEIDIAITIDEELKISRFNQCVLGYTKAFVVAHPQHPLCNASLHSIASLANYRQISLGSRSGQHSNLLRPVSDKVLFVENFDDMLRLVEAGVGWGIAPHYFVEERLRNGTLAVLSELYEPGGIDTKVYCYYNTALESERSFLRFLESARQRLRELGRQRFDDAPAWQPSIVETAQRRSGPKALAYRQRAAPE

[4] = test system: Pseudomonas aeruginosa PA14; assay: Pyocyanin assay in Pseudomonas aeruginosa; format: cell-based; details: PA14, 16 h, read-out: IC50 Pyocyanin
Protocol: 1.2.2 Pyocyanin assay in Pseudomonas aeruginosa
Inhibition of pyocyanin biosynthesis of compounds was measured spectrophotometrically as previously described.[2] Pseudomonas aeruginosa PA14 was grown in rich medium for 16 h under agitation with and without compound. Pyocyanin was extracted from cultures with chloroform, then re-extracted with 0.2 M HCl and quantified photometrically (520 nm). IC50 values were determined from dose-response curves of compounds using at least six different concentrations and fitting with non-linear regression analysis (OriginPro 2017–2020, Originlab Corporation). […]

[5] = Kinetic turbidimetric aqueous solubility; details: PBS buffer, kinetic from dmso stock
[6] = Metabolic stability in mouse liver microsomes (MLM)
Protocol: 1.3.2 Metabolic-Stability Tests in Mouse Liver Microsomes (MLM).
Phase I metabolic stability was evaluated by incubating the compound (1 μM) with 0.5 mg/mL MLM (Corning) and 1 mM NADPH at 37 °C for 0, 5, 10, 15 and 30 min. The enzymatic activity of the MLM was determined by measuring the metabolic stability of Verapamil, Diphenhydramine and Benzydamine (1 μM each).
The half-life (t1/2) was determined by analyzing the concentrations of the compounds at the different time points by HPLC-MS/MS.

[7] = strain column 1 of 16 (strain heads not assignable)

Molecule | IC50 [4] | solubility kinetic at 5 min [5] | half-life at 1 μM [6] | also measured
CC(C)(O/N=C(\C(=O)N[C@@H]1C(=O)N2C(C(=O)[O-])=C(C[n+]3ccccc3)CS[C@H]12)c1csc(N)n1)C(=O)O [Ceftazidim] |  |  |  | MIC [1, 7]: 2 µg/mL (≈ 3.66 µM); MIC ([1]; strain column 2 of 16): 4 µg/mL (≈ 7.32 µM); MIC ([1]; strain column 3 of 16): 2 µg/mL (≈ 3.66 µM); MIC ([1]; strain column 4 of 16): ≤ 0.5 µg/mL; MIC ([1]; strain column 5 of 16): 2 µg/mL (≈ 3.66 µM); MIC ([1]; strain column 6 of 16): 1 µg/mL (≈ 1.83 µM); MIC ([1]; strain column 7 of 16): ≤ 0.5 µg/mL; MIC ([1]; strain column 8 of 16): 4 µg/mL (≈ 7.32 µM); MIC ([1]; strain column 9 of 16): ≤ 0.5 µg/mL; MIC ([1]; strain column 10 of 16): 16 µg/mL (≈ 29.3 µM); MIC ([1]; strain column 11 of 16): ≤ 0.5 µg/mL; MIC ([1]; strain column 12 of 16): 2 µg/mL (≈ 3.66 µM); MIC ([1]; strain column 13 of 16): ≤ 0.5 µg/mL; MIC ([1]; strain column 14 of 16): 4 µg/mL (≈ 7.32 µM); MIC ([1]; strain column 15 of 16): 4 µg/mL (≈ 7.32 µM); MIC ([1]; strain column 16 of 16): 2 µg/mL (≈ 3.66 µM)
Nc1cc(NCc2ccc(F)cc2)cc(C(F)(F)F)n1 [Compound 1] |  |  |  | IC50 [2]: 107000 nM; IC50 ([3]; read-out: IC50 PqsR, previously published hit): 2310 nM; IC50 ([3]; read-out: IC50 toward PqsR in heterologous lacZ reporter gene assay in E. coli): 2300 nM
Fc1ccc(CNc2ccnc(C(F)(F)F)c2)cc1 [Compound 2] | 176000 ± 47400 nM | > 200 µM | 54 min | 
FC(F)(F)c1cc(NCc2ccc(Cl)cc2)ccn1 [Compound 3] | 19000 ± 1200 nM | > 200 µM | 44 min | 
FC(F)(F)c1cc(NCc2ccc(Br)cc2)ccn1 [Compound 4] | 14400 ± 1600 nM | > 200 µM | 61 min | 
FC(F)(F)c1cc(NCc2cccc(Br)c2)ccn1 [Compound 5] | 71400 ± 27200 nM | > 200 µM | 20 min | 
FC(F)(F)c1cc(NCc2ccccc2Br)ccn1 [Compound 6] | 126000 ± 10600 nM | > 200 µM | 4 min | 
FC(F)(F)c1cc(NCc2ccc(-c3ccc(Cl)cc3)cc2)ccn1 [Compound 7] | 449 ± 74 nM | 10 µM (≈ 3.63 µg/mL) | > 40 min | 
FC(F)(F)c1cc(NCc2ccc(-c3ccc(Cl)cc3)nc2)ccn1 [Compound 8] | 3300 ± 1300 nM | 38.9 µM (≈ 14.2 µg/mL) | 50 min | 
FC(F)(F)c1cc(NCc2ccc(-c3ccc(Cl)cc3)cn2)ccn1 [Compound 9] | 2900 ± 3900 nM | 26.6 µM (≈ 9.68 µg/mL) | 57 min | 
FC(F)(F)c1cc(NCc2ccc(-c3ccc(Cl)cn3)cn2)ccn1 [Compound 10] | 35100 ± 27500 nM | > 200 µM | 75 min | 
FC(F)(F)c1cc(NCc2ccc(-c3ccc(Cl)nc3)cn2)ccn1 [Compound 11] | 7200 ± 4600 nM | 161 µM (≈ 58.6 µg/mL) | > 480 min | 
FC(F)(F)c1cc(OCc2ccc(-c3ccc(Cl)nc3)cn2)ccn1 [Compound 12] | > 20000 nM | 48.1 µM (≈ 17.6 µg/mL) | 74 min | 
FC(F)(F)c1cc(SCc2ccc(-c3ccc(Cl)nc3)cn2)ccn1 [Compound 13] | 3100 ± 900 nM | 42.3 µM (≈ 16.2 µg/mL) | 6 min | 
COc1ccc(-c2ccc(CNc3ccnc(C(F)(F)F)c3)nc2)cn1 [Compound 14] | 2900 ± 800 nM | > 200 µM | 77 min | 
Cc1cc(-c2ccc(CNc3ccnc(C(F)(F)F)c3)nc2)cnc1Cl [Compound 15] | 1900 ± 300 nM | 112 µM (≈ 42.6 µg/mL) | < 5 min | 
FC(F)(F)c1cc(NCc2ccc(-c3cnc(Cl)c(C(F)(F)F)c3)cn2)ccn1 [Compound 16] | 2100 ± 400 nM | 101 µM (≈ 43.7 µg/mL) | 384 min | 
FC(F)(F)c1cc(NCc2ccc(-c3cnc(Cl)c(Cl)c3)cn2)ccn1 [Compound 17] | 802 ± 200 nM | 76.2 µM (≈ 30.4 µg/mL) | 45 min | 
COc1ncc(-c2ccc(CNc3ccnc(C(F)(F)F)c3)nc2)cc1Cl [Compound 18] | 1500 ± 200 nM | 42.4 µM (≈ 16.7 µg/mL) | 2 min | 
FC(F)(F)c1cc(NCc2ccc(-c3ccc(Oc4ccccc4)nc3)cn2)ccn1 [Compound 19] | 4200 ± 1100 nM | 25.6 µM (≈ 10.8 µg/mL) | 35 min | 
FC(F)(F)c1cc(NCc2cnc(-c3ccc(Cl)c(Cl)c3)nc2)ccn1 [Compound 20] | 234 ± 57 nM | 16.6 µM (≈ 6.63 µg/mL) | 61 min | 
FC(F)(F)c1cc(NCc2cnc(-c3ccc(Oc4ccccc4)cc3)nc2)ccn1 [Compound 21] | 320 ± 110 nM | 10.9 µM (≈ 4.6 µg/mL) | 32 min | 
CC(C)Oc1ccc(-c2ncc(CNc3ccnc(C(F)(F)F)c3)cn2)cc1 [Compound 22] | 521 ± 300 nM | 41.7 µM (≈ 16.2 µg/mL) | > 85 min | 
FC(F)(F)c1cc(NCc2cnc(-c3ccc(C4CC4)cc3)nc2)ccn1 [Compound 23] | 591 ± 70 nM | 16.5 µM (≈ 6.11 µg/mL) | 3 min | 
CC(C)Oc1ncc(-c2ncc(CNc3ccnc(C(F)(F)F)c3)cn2)cc1Cl [Compound 25] | 523 ± 50 nM | 37.9 µM (≈ 16.1 µg/mL) | > 480 min | 
Colistin |  |  |  | MIC [1, 7]: 2 µg/mL; MIC ([1]; strain column 2 of 16): 2 µg/mL; MIC ([1]; strain column 3 of 16): 1 µg/mL; MIC ([1]; strain column 4 of 16): ≤ 0.5 µg/mL; MIC ([1]; strain column 5 of 16): 1 µg/mL; MIC ([1]; strain column 6 of 16): 2 µg/mL; MIC ([1]; strain column 7 of 16): 1 µg/mL; MIC ([1]; strain column 8 of 16): 2 µg/mL; MIC ([1]; strain column 9 of 16): 2 µg/mL; MIC ([1]; strain column 10 of 16): 1 µg/mL; MIC ([1]; strain column 11 of 16): 1 µg/mL; MIC ([1]; strain column 12 of 16): 2 µg/mL; MIC ([1]; strain column 13 of 16): 1 µg/mL; MIC ([1]; strain column 14 of 16): 1 µg/mL; MIC ([1]; strain column 15 of 16): 1 µg/mL; MIC ([1]; strain column 16 of 16): 2 µg/mL
